Biological target: FGFR1 kinase domain (Homo sapiens, UniProt P11362)
Test: ALPHAScreen assay of inhibition of phosphorylation by FGFR1 kinase
Assay type: biochemical

FGFR1 kinase domain, sequence (P11362 478-767 limits assumed): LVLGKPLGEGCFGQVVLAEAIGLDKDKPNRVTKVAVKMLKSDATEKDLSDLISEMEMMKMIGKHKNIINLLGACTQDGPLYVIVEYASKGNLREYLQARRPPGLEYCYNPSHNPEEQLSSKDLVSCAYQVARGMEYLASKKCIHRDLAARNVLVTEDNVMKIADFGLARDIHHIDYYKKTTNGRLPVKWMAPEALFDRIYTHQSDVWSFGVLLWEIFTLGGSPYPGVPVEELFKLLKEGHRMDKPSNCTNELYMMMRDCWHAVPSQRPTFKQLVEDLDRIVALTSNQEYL

Row | IC50 [µM] | SMILES
1 | 28 | COc1cc(OC)cc(-c2ccc3c(c2)sc2nc(-c4ccc(OCC(=O)O)c(OC)c4)[nH]c(=O)c23)c1 [compound 6, 2-(4-(7-(3,5-dimethoxyphenyl)-4-oxo-3,4-dihydrobenzo[4,5]thieno[2,3-d]pyrimidin-2-yl)-2-methoxyphenoxy)acetic acid]
2 | 21 | COc1cc(OC)cc(-c2ccc3c(c2)sc2nc(CCC(=O)O)[nH]c(=O)c23)c1 [compound 7, 3-(7-(3,5-dimethoxyphenyl)-4-oxo-3,4-dihydrobenzo[4,5]thieno[2,3-d]pyrimidin-2-yl)propanoic acid]

— publication PMC3079261 (Tetrahedron letters, 2011)
